Ends that are not written are not given here.
Test system: trypsin
Assay: Colloidal gold nanoparticle-based colorimetric assay for trypsin (hydrolytic cleavage of peptide substrate)
Type: biochemical
Conditions: 1000 nM peptide substrate, trypsin 200 pM, 20° C.
Protocol: Based on the design criteria for the peptide substrate mentioned above, a sequence of amino acids in the peptide substrate of SEQ ID NO: 1 Lys-Lys-Gly-Phe-Pro-Arg-Gly-Gly-Asp-Cys was used in an assay method patterned after FIG. 1a. Unless noted otherwise, all incubations and reactions reported in the present specification were conducted at 20° C. The final reaction volume in all experiments described in the present specification, unless noted otherwise, was 500 microliters and the gold nanoparticle concentration was 1 nM. […] Thus, in all of the described experiments the aggregation state of any gold nanoparticle solution could be measured after 30 minutes or less. […] All of these can be evaluated using the present inventive assay methods. […]
After confirming that the peptide substrate SEQ ID NO: 1 Lys-Lys-Gly-Phe-Pro-Arg-Gly-Gly-Asp-Cys did induce the aggregation of negative surface charged gold nanoparticles, we carried out another experiment of examining the ultraviolet-visible spectra of solutions of colloidal gold nanoparticles after they were added to solutions of peptide substrates that had been pre-exposed for different time periods of from 0 minutes (min) to 60 min to trypsin. […] The absorbance spectrum shifts back to a maximum at 520 nm±5 nm, non-aggregated nanoparticles, as the pre-exposure time increases. […]

## KKGFPRGGDC [SEQ ID NO: 1, peptide substrate cleaved by trypsin; intact peptide aggregates negatively charged gold nanoparticles]
  time for complete hydrolytic cleavage of the peptide substrate by trypsin: more than 60 min
